According to PubChem BioAssay (NCI):
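Assay format: 96-well plates, 48-hour exposure. The concentration for full growth arrest is given as TGI.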

Legend:
Assay in all cases: growth of human tumour cells (NCI), 48 h
786-0 renal = test system: 786-0 renal
A498 renal = test system: A498 renal
A549 NSCLC = test system: A549 NSCLC
ACHN renal = test system: ACHN renal
CAKI-1 renal = test system: CAKI-1 renal
CCRF-CEM leukemia = test system: CCRF-CEM leukemia
COLO 205 colon = test system: COLO 205 colon
DLD-1 colon = test system: DLD-1 colon
DMS 114 small cell lung = test system: DMS 114 small cell lung
DMS 273 small cell lung = test system: DMS 273 small cell lung
HCC-2998 colon = test system: HCC-2998 colon
HCT-15 colon = test system: HCT-15 colon
HL-60(TB) leukemia = test system: HL-60(TB) leukemia
HOP-18 NSCLC = test system: HOP-18 NSCLC
HOP-62 NSCLC = test system: HOP-62 NSCLC
HOP-92 NSCLC = test system: HOP-92 NSCLC
HT29 colon = test system: HT29 colon
IGROV1 ovarian = test system: IGROV1 ovarian
K-562 leukemia = test system: K-562 leukemia
KM12 colon = test system: KM12 colon
KM20L2 colon = test system: KM20L2 colon
LOX IMVI melanoma = test system: LOX IMVI melanoma
LXFL 529 NSCLC = test system: LXFL 529 NSCLC
M14 melanoma = test system: M14 melanoma
M19-MEL melanoma = test system: M19-MEL melanoma
MALME-3M melanoma = test system: MALME-3M melanoma
MOLT-4 leukemia = test system: MOLT-4 leukemia
NCI-H226 lung = test system: NCI-H226 lung
NCI-H23 lung = test system: NCI-H23 lung
NCI-H460 lung = test system: NCI-H460 lung
OVCAR-3 ovarian = test system: OVCAR-3 ovarian
OVCAR-4 ovarian = test system: OVCAR-4 ovarian
OVCAR-5 ovarian = test system: OVCAR-5 ovarian
RPMI-8226 leukemia = test system: RPMI-8226 leukemia
RXF 393 renal = test system: RXF 393 renal
RXF-631 renal = test system: RXF-631 renal
SF-268 CNS = test system: SF-268 CNS
SF-295 CNS = test system: SF-295 CNS
SF-539 CNS = test system: SF-539 CNS
SK-MEL-2 melanoma = test system: SK-MEL-2 melanoma
SK-MEL-28 melanoma = test system: SK-MEL-28 melanoma
SK-OV-3 ovarian = test system: SK-OV-3 ovarian
SN12C renal = test system: SN12C renal
SNB-75 CNS = test system: SNB-75 CNS
SNB-78 CNS = test system: SNB-78 CNS
SW-620 colon = test system: SW-620 colon
U251 CNS = test system: U251 CNS
UACC-257 melanoma = test system: UACC-257 melanoma
UACC-62 melanoma = test system: UACC-62 melanoma
UO-31 renal = test system: UO-31 renal
XF 498 CNS = test system: XF 498 CNS
EKVX NSCLC = test system: EKVX NSCLC
HCT-116 colon = test system: HCT-116 colon
NCI-H522 lung = test system: NCI-H522 lung
OVCAR-8 ovarian = test system: OVCAR-8 ovarian
SK-MEL-5 melanoma = test system: SK-MEL-5 melanoma
SNB-19 CNS = test system: SNB-19 CNS
SR leukemia = test system: SR leukemia
TK-10 renal = test system: TK-10 renal
BT-549 breast = test system: BT-549 breast
DU-145 prostate = test system: DU-145 prostate
HS 578T breast = test system: HS 578T breast
MCF7 breast = test system: MCF7 breast
MDA-MB-231 breast = test system: MDA-MB-231 breast
MDA-MB-435 = test system: MDA-MB-435
MDA-N = test system: MDA-N
NCI/ADR-RES ovarian = test system: NCI/ADR-RES ovarian
T-47D breast = test system: T-47D breast

## O=C(OCc1ccccc1)N1N=NC2C3CC(OCc4ccccc4)(OCc4ccccc4)C(O3)C21 (stereo unspecified)
786-0 renal
  TGI: > 100 µM
A498 renal
  TGI: > 100 µM
A549 NSCLC
  TGI: > 100 µM
ACHN renal
  TGI: > 100 µM
CAKI-1 renal
  TGI: > 100 µM
CCRF-CEM leukemia
  TGI: > 100 µM
COLO 205 colon
  TGI: 63 µM
DLD-1 colon
  TGI: > 100 µM
DMS 114 small cell lung
  TGI: 53.1 µM
DMS 273 small cell lung
  TGI: 94.9 µM
HCC-2998 colon
  TGI: 83.2 µM
HCT-15 colon
  TGI: > 100 µM
HL-60(TB) leukemia
  TGI: 32.6 µM
HOP-18 NSCLC
  TGI: 94 µM
HOP-62 NSCLC
  TGI: > 100 µM
HOP-92 NSCLC
  TGI: 43.9 µM
HT29 colon
  TGI: > 100 µM
IGROV1 ovarian
  TGI: > 100 µM
K-562 leukemia
  TGI: 73.6 µM
KM12 colon
  TGI: > 100 µM
KM20L2 colon
  TGI: > 100 µM
LOX IMVI melanoma
  TGI: 42.8 µM
LXFL 529 NSCLC
  TGI: > 100 µM
M14 melanoma
  TGI: > 100 µM
M19-MEL melanoma
  TGI: 77.6 µM
MALME-3M melanoma
  TGI: 43.1 µM
MOLT-4 leukemia
  TGI: 60.7 µM
NCI-H226 lung
  TGI: 41.8 µM
NCI-H23 lung
  TGI: 38.9 µM
NCI-H460 lung
  TGI: > 100 µM
OVCAR-3 ovarian
  TGI: 59.6 µM
OVCAR-4 ovarian
  TGI: > 100 µM
OVCAR-5 ovarian
  TGI: 70.4 µM
RPMI-8226 leukemia
  TGI: > 100 µM
RXF 393 renal
  TGI: 35.6 µM
RXF-631 renal
  TGI: > 100 µM
SF-268 CNS
  TGI: 87.7 µM
SF-295 CNS
  TGI: > 100 µM
SF-539 CNS
  TGI: > 100 µM
SK-MEL-2 melanoma
  TGI: 33 µM
SK-MEL-28 melanoma
  TGI: 55.1 µM
SK-OV-3 ovarian
  TGI: > 100 µM
SN12C renal
  TGI: > 100 µM
SNB-75 CNS
  TGI: 82.4 µM
SNB-78 CNS
  TGI: > 100 µM
SW-620 colon
  TGI: 80.5 µM
U251 CNS
  TGI: > 100 µM
UACC-257 melanoma
  TGI: 41.4 µM
UACC-62 melanoma
  TGI: 61.4 µM
UO-31 renal
  TGI: 28.4 µM
XF 498 CNS
  TGI: 53.4 µM

## C=Cc1c(-c2ccccc2)cnc2[nH]c3ccccc3c12
786-0 renal
  TGI: > 50 µM
A498 renal
  TGI: > 50 µM
A549 NSCLC
  TGI: > 50 µM
ACHN renal
  TGI: > 50 µM
CAKI-1 renal
  TGI: > 50 µM
CCRF-CEM leukemia
  TGI: > 50 µM
COLO 205 colon
  TGI: > 50 µM
DLD-1 colon
  TGI: > 50 µM
DMS 114 small cell lung
  TGI: > 50 µM
DMS 273 small cell lung
  TGI: > 50 µM
EKVX NSCLC
  TGI: > 50 µM
HCC-2998 colon
  TGI: > 50 µM
HCT-116 colon
  TGI: > 50 µM
HCT-15 colon
  TGI: > 50 µM
HL-60(TB) leukemia
  TGI: > 50 µM
HOP-62 NSCLC
  TGI: > 50 µM
HT29 colon
  TGI: > 50 µM
IGROV1 ovarian
  TGI: > 50 µM
K-562 leukemia
  TGI: > 50 µM
KM12 colon
  TGI: > 50 µM
LOX IMVI melanoma
  TGI: > 50 µM
LXFL 529 NSCLC
  TGI: > 50 µM
M14 melanoma
  TGI: > 50 µM
M19-MEL melanoma
  TGI: > 50 µM
MALME-3M melanoma
  TGI: > 50 µM
MOLT-4 leukemia
  TGI: > 50 µM
NCI-H23 lung
  TGI: > 50 µM
NCI-H460 lung
  TGI: > 50 µM
NCI-H522 lung
  TGI: > 50 µM
OVCAR-3 ovarian
  TGI: > 50 µM
OVCAR-4 ovarian
  TGI: > 50 µM
OVCAR-5 ovarian
  TGI: > 50 µM
OVCAR-8 ovarian
  TGI: > 50 µM
RPMI-8226 leukemia
  TGI: > 50 µM
RXF 393 renal
  TGI: > 50 µM
SF-268 CNS
  TGI: > 50 µM
SF-295 CNS
  TGI: > 50 µM
SK-MEL-2 melanoma
  TGI: > 50 µM
SK-MEL-28 melanoma
  TGI: > 50 µM
SK-MEL-5 melanoma
  TGI: > 50 µM
SK-OV-3 ovarian
  TGI: > 50 µM
SN12C renal
  TGI: > 50 µM
SNB-19 CNS
  TGI: > 50 µM
SNB-75 CNS
  TGI: 46 µM
SR leukemia
  TGI: > 50 µM
SW-620 colon
  TGI: > 50 µM
TK-10 renal
  TGI: > 50 µM
U251 CNS
  TGI: > 50 µM
UACC-257 melanoma
  TGI: > 50 µM
UACC-62 melanoma
  TGI: > 50 µM
UO-31 renal
  TGI: > 50 µM
XF 498 CNS
  TGI: > 50 µM

## CC1=CC(=O)c2ccc3c4ccccc4n(C)c3c2C1=O
786-0 renal
  TGI: > 100 µM
A498 renal
  TGI: > 100 µM
A549 NSCLC
  TGI: > 100 µM
ACHN renal
  TGI: > 100 µM
BT-549 breast
  TGI: > 100 µM
CAKI-1 renal
  TGI: > 67.5 µM
CCRF-CEM leukemia
  TGI: > 81.5 µM
COLO 205 colon
  TGI: > 100 µM
DLD-1 colon
  TGI: > 100 µM
DMS 114 small cell lung
  TGI: 97.1 µM
DMS 273 small cell lung
  TGI: > 100 µM
DU-145 prostate
  TGI: > 100 µM
EKVX NSCLC
  TGI: > 62.7 µM
HCC-2998 colon
  TGI: > 100 µM
HCT-116 colon
  TGI: > 100 µM
HCT-15 colon
  TGI: > 100 µM
HL-60(TB) leukemia
  TGI: > 72.3 µM
HOP-18 NSCLC
  TGI: 42.2 µM
HOP-62 NSCLC
  TGI: > 100 µM
HOP-92 NSCLC
  TGI: > 100 µM
HS 578T breast
  TGI: > 100 µM
HT29 colon
  TGI: > 31.6 µM
IGROV1 ovarian
  TGI: > 100 µM
K-562 leukemia
  TGI: > 100 µM
KM12 colon
  TGI: > 100 µM
LXFL 529 NSCLC
  TGI: > 100 µM
M14 melanoma
  TGI: 64.4 µM
M19-MEL melanoma
  TGI: 38.2 µM
MALME-3M melanoma
  TGI: 30 µM
MCF7 breast
  TGI: > 100 µM
MDA-MB-231 breast
  TGI: > 100 µM
MDA-MB-435
  TGI: 33.4 µM
MDA-N
  TGI: 33.1 µM
MOLT-4 leukemia
  TGI: > 72.8 µM
NCI-H226 lung
  TGI: > 100 µM
NCI-H23 lung
  TGI: > 92 µM
NCI-H460 lung
  TGI: > 100 µM
NCI-H522 lung
  TGI: 78.9 µM
NCI/ADR-RES ovarian
  TGI: > 100 µM
OVCAR-3 ovarian
  TGI: > 100 µM
OVCAR-4 ovarian
  TGI: > 100 µM
OVCAR-5 ovarian
  TGI: > 100 µM
OVCAR-8 ovarian
  TGI: > 100 µM
RPMI-8226 leukemia
  TGI: > 100 µM
RXF 393 renal
  TGI: > 100 µM
SF-268 CNS
  TGI: > 100 µM
SF-295 CNS
  TGI: > 100 µM
SF-539 CNS
  TGI: > 100 µM
SK-MEL-2 melanoma
  TGI: 53.1 µM
SK-MEL-28 melanoma
  TGI: > 100 µM
SK-MEL-5 melanoma
  TGI: 30.5 µM
SK-OV-3 ovarian
  TGI: > 100 µM
SN12C renal
  TGI: > 100 µM
SNB-19 CNS
  TGI: > 100 µM
SNB-75 CNS
  TGI: > 100 µM
SNB-78 CNS
  TGI: > 100 µM
SW-620 colon
  TGI: > 100 µM
T-47D breast
  TGI: > 100 µM
TK-10 renal
  TGI: > 100 µM
U251 CNS
  TGI: > 100 µM
UACC-257 melanoma
  TGI: > 100 µM
UO-31 renal
  TGI: > 100 µM
XF 498 CNS
  TGI: > 100 µM
